In patent publication US11331369B2, “Endoparasitic depsipeptides” (Zoetis Services LLC, priority 2017, dated 2022):

How the values were obtained:
Format in all cases: cell-based
[1] = tested on: 4th stage larvae (L4) of Dirofilaria immitis; assay: Dirofilaria immitis, L4 Stage (DiL4) In Vitro Assay; conditions: Dirofilaria immitis, 72 h, read-out: DiL4 Minimum Effective Dose (MED), approximately 72 hours incubation; L4 larvae assessed for survival or paralysis
[2] = tested on: third stage larvae of Haemonchus contortus; assay: Haemonchus contortus L3 (HcL3) Assay; conditions: 96 h, read-out: HcL3 Minimum Effective Dose (MED)
[3] = tested on: microfilariae of Dirofilaria immitis; assay: Dirofilaria immitis, Microfilaria (DiMF) In vitro Assay; conditions: 72 h, read-out: DiMF Minimum Effective Dose (MED), approximately 72 hours incubation, microfilariae assessed for survival or paralysis

SMILES	minimal effective concentration [1]	minimal effective concentration [2]	minimal effective concentration [3]
CC(C)C[C@H]1C(=O)O[C@H](Cc2ccc(Cn3nccc3C3CCCC3)cc2)C(=O)N(C)[C@@H](CC(C)C)C(=O)O[C@H](C)C(=O)N(C)[C@@H](CC(C)C)C(=O)O[C@H](Cc2ccc(Cn3ccc(C4CCCC4)n3)cc2)C(=O)N(C)[C@@H](CC(C)C)C(=O)O[C@H](C)C(=O)N1C [Example 1a-34, (3S,6R,9S,12R,15S,18R,21S,24R)-6-(4-((3-cyclopentyl-1H-pyrazol-1-yl)methyl)benzyl)-18-(4-((5-cyclopentyl-1H-pyrazol-1-yl)methyl)benzyl)-3,9,15,21-tetraisobutyl-4,10,12,16,22,24-hexamethyl-1,7,13,19-tetraoxa-4,10,16,22-tetraazacyclotetracosan-2,5,8,11,14,17,20,23-octaone]	0.001 to 0.01 µM		
CC(C)C[C@H]1C(=O)O[C@H](Cc2ccc(CN3C(=O)CCC3=O)cc2)C(=O)N(C)[C@@H](CC(C)C)C(=O)O[C@H](C)C(=O)N(C)[C@@H](CC(C)C)C(=O)O[C@H](Cc2ccc(CN3C(=O)CCC3=O)cc2)C(=O)N(C)[C@@H](CC(C)C)C(=O)O[C@H](C)C(=O)N1C [Example 9-11, (3S,6R,9S,12R,15S,18R,21S,24R)-6,18-bis(4-((2,5-dioxopyrrolidin-1-yl)methyl)benzyl)-3,9,15,21-tetraisobutyl-4,10,12,16,22,24-hexamethyl-1,7,13,19-tetraoxa-4,10,16,22-tetraazacyclotetracosan-2,5,8,11,14,17,20,23-octaone]		1 to 10 µM	0.001 to 0.01 µM
CC(C)C[C@H]1C(=O)O[C@H](Cc2ccc(Cn3ccccc3=O)cc2)C(=O)N(C)[C@@H](CC(C)C)C(=O)O[C@H](C)C(=O)N(C)[C@@H](CC(C)C)C(=O)O[C@H](Cc2ccc(Cn3ccccc3=O)cc2)C(=O)N(C)[C@@H](CC(C)C)C(=O)O[C@H](C)C(=O)N1C [Example 9-28, (3S,6R,9S,12R,15S,18R,21S,24R)-3,9,15,21-tetraisobutyl-4,6,10,16,18,22-hexamethyl-12,24-bis(4-((2-oxopyridin-1 (2H)-yl)methyl)benzyl)-1,7,13,19-tetraoxa-4,10,16,22-tetraazacyclotetracosan-2,5,8,11,14,17,20,23-octaone]		1 to 10 µM	0.001 to 0.01 µM
CC(C)C[C@H]1C(=O)O[C@H](Cc2ccc(Cn3ncnc3-c3ccccc3)cc2)C(=O)N(C)[C@@H](CC(C)C)C(=O)O[C@H](C)C(=O)N(C)[C@@H](CC(C)C)C(=O)O[C@H](Cc2ccc(Cn3ncnc3-c3ccccc3)cc2)C(=O)N(C)[C@@H](CC(C)C)C(=O)O[C@H](C)C(=O)N1C [Example 9-34, (3S,6R,9S,12R,15S,18R,21S,24R)-3,9,15,21-tetraisobutyl-4,6,10,16,18,22-hexamethyl-12,24-bis(4-((5-phenyl-1H-1,2,4-triazol-1-yl)methyl)benzyl)-1,7,13,19-tetraoxa-4,10,16,22-tetraazacyclotetracosan-2,5,8,11,14,17,20,23-octaone]		1 to 10 µM	0.001 to 0.01 µM
CC(C)C[C@H]1C(=O)O[C@H](Cc2ccc(Cn3cc4c(n3)CCOC4)cc2)C(=O)N(C)[C@@H](CC(C)C)C(=O)O[C@H](C)C(=O)N(C)[C@@H](CC(C)C)C(=O)O[C@H](Cc2ccc(Cn3cc4c(n3)CCOC4)cc2)C(=O)N(C)[C@@H](CC(C)C)C(=O)O[C@H](C)C(=O)N1C [Example 9-41, (3S,6R,9S,12R,15S,18R,21S,24R)-6,18-bis(4-((6,7-dihydropyrano[4,3-c]pyrazol-2(4H)-yl)methyl)benzyl)-3,9,15,21-tetraisobutyl-4,10,12,16,22,24-hexamethyl-1,7,13,19-tetraoxa-4,10,16,22-tetraazacyclotetracosan-2,5,8,11,14,17,20,23-octaone]		1 to 10 µM	0.001 to 0.01 µM
Cc1nc(C2CC2)n(Cc2ccc(C[C@H]3OC(=O)[C@H](CC(C)C)N(C)C(=O)[C@@H](C)OC(=O)[C@H](CC(C)C)N(C)C(=O)[C@@H](Cc4ccc(Cn5nc(C)nc5C5CC5)cc4)OC(=O)[C@H](CC(C)C)N(C)C(=O)[C@@H](C)OC(=O)[C@H](CC(C)C)N(C)C3=O)cc2)n1 [Example 9-57, (3S,6R,9S,12R,15S,18R,21S,24R)-6,18-bis(4-((5-cyclopropyl-3-methyl-1H-1,2,4-triazol-1-yl)methyl)benzyl)-3,9,15,21-tetraisobutyl-4,10,12,16,22,24-hexamethyl-1,7,13,19-tetraoxa-4,10,16,22-tetraazacyclotetracosan-2,5,8,11,14,17,20,23-octaone]		1 to 10 µM	0.01 to 0.1 µM
CCc1nc(C)nn1Cc1ccc(C[C@H]2OC(=O)[C@H](CC(C)C)N(C)C(=O)[C@@H](C)OC(=O)[C@H](CC(C)C)N(C)C(=O)[C@@H](Cc3ccc(Cn4nc(C)nc4CC)cc3)OC(=O)[C@H](CC(C)C)N(C)C(=O)[C@@H](C)OC(=O)[C@H](CC(C)C)N(C)C2=O)cc1 [Example 9-59, (3S,6R,9S,12R,15S,18R,21S,24R)-6,18-bis(4-((5-ethyl-3-methyl-1H-1,2,4-triazol-1-yl)methyl)benzyl)-3,9,15,21-tetraisobutyl-4,10,12,16,22,24-hexamethyl-1,7,13,19-tetraoxa-4,10,16,22-tetraazacyclotetracosan-2,5,8,11,14,17,20,23-octaone]		1 to 10 µM	0.01 to 0.1 µM
CC(C)C[C@H]1C(=O)O[C@H](C)C(=O)N(C)[C@@H](CC(C)C)C(=O)O[C@H](Cc2ccccc2)C(=O)N(C)[C@@H](CC(C)C)C(=O)O[C@H](C)C(=O)N(C)[C@@H](CC(C)C)C(=O)O[C@@H](Cc2ccc(CN3CCC(F)(F)CC3)cc2)C(=O)N1C [Example 10-3, (3S,6R,9S,12R,15S,18S,21S,24R)-6-benzyl-18-(4-((4,4-difluoropiperidin-1-yl)methyl)benzyl)-3,9,15,21-tetraisobutyl-4,10,12,16,22,24-hexamethyl-1,7,13,19-tetraoxa-4,10,16,22-tetraazacyclotetracosan-2,5,8,11,14,17,20,23-octaone]		1 to 10 µM	0.01 to 0.1 µM
CC(C)C[C@H]1C(=O)O[C@H](Cc2ccc(Cn3ccccc3=O)cc2)C(=O)N(C)[C@@H](CC(C)C)C(=O)O[C@H](C)C(=O)N(C)[C@@H](CC(C)C)C(=O)O[C@H](Cc2ccccc2)C(=O)N(C)[C@@H](CC(C)C)C(=O)O[C@H](C)C(=O)N1C [Example 10-17, (3S,6R,9S,12R,15S,18R,21S,24R)-6-benzyl-3,9,15,21-tetraisobutyl-4,10,12,16,22,24-hexamethyl-18-(4-((2-oxopyridin-1 (2H)-yl)methyl)benzyl)-1,7,13,19-tetraoxa-4,10,16,22-tetraazacyclotetracosan-2,5,8,11,14,17,20,23-octaone]		1 to 10 µM	0.001 to 0.01 µM
CC(C)C[C@H]1C(=O)O[C@H](Cc2ccc(CN3CCOC3=O)cc2)C(=O)N(C)[C@@H](CC(C)C)C(=O)O[C@H](C)C(=O)N(C)[C@@H](CC(C)C)C(=O)O[C@H](Cc2ccccc2)C(=O)N(C)[C@@H](CC(C)C)C(=O)O[C@H](C)C(=O)N1C [Example 10-18, (3S,6R,9S,12R,15S,18R,21S,24R)-6-benzyl-3,9,15,21-tetraisobutyl-4,10,12,16,22,24-hexamethyl-18-(4-((2-oxooxazolidin-3-yl)methyl)benzyl)-1,7,13,19-tetraoxa-4,10,16,22-tetraazacyclotetracosan-2,5,8,11,14,17,20,23-octaone]		1 to 10 µM	0.01 to 0.1 µM
